Reference: patent EP3919042A1, “COMPOSITION WITH SILANOL, ETHANOL AND WATER FOR GLOBAL DI[…]” (Sil'Innov scrl, priority 2020, dated 2021)

Assay: stability of MMST in water without stabilizers
Format: physicochemical
Settings: stability declines at higher concentrations
Experimental: In a preferred embodiment of a composition according to the first aspect of the invention, the composition comprises monomethylsilanetriol (MMST). Monomethylsilanetriol (MMST, MeSiOH3 or Si(OH)3CH3) is an organosilanol. […] This organosilanol is highly bioavailable. […] MMST can advantageously be used without stabilizers in silicon equivalent concentrations up to 300 mg/l. The stability of MMST is dependent on concentration and declines at higher concentrations. The stability can further be enhanced by the use of stabilizing agents. In a preferred embodiment the stabilizing agent is based on phenol or polyphenol as described above. The same reasoning applies, mutatis mutandis, with respect to stabilizing effect on the free hydroxyl groups.

**Q.** Which “silicon equivalent concentration usable without stabilizers” value does the source give for C[Si](O)(O)O [MMST, monomethylsilanetriol] here?
**A.** The value was “up to 300 mg/l”.
